How the values were obtained:
E. coli K12 = experiment: Antibacterial activity of NO released from hydrogel 4 under blue light, viable count method; type: cell-based, Escherichia coli
Description: The antibacterial activity of NO released from hydrogel 4 was investigated in vitro. Initially, a single colony of E. coli K12 was grown in LB broth medium (Sigma-Aldrich) at 37° C. overnight. The resulting bacteria were harvested via centrifugation to obtain a bacteria pallet which was re-suspended in the same volume of LB, twice. The optical density value of the resulting culture was adjusted to 0.1 at 600 nm (10^8 cfu·mL^−1). This bacteria solution was then further adjusted to 3×10^4 cfu·mL^−1.
Hydrogel 4 was prepared at 1% w/v in two different vials. The first vial (vial a) contained hydrogel 4 which will be exposed to blue light. Meanwhile vial b contained hydrogel 4, which will be covered using aluminium foil during the entire experiment. Furthermore, on top of these pre-formed hydrogels, 1 mL of bacteria solution was carefully cast. A vial c that contained only 1 mL of bacteria solution was also prepared. Subsequently, vial a and vial c were irradiated using blue light (440-450 nm). As a negative control, a bacteria solution in the absence of hydrogel and blue light was used in this experiment. After 2 hours, 100 μL of bacteria solution in each vial was taken and subjected to serial dilution using PBS. 20 μL of each dilution were carefully transferred into nutrient agar plates and incubated for another 18 hours. The following day, bacterial growth inhibition were quantified using viable count method. The experiment was performed twice in triplicate and multiple sample comparison was performed using one-way ANOVA at p<0.05.
Bacterial culture (1 mL containing 3×10^4 CFU) was carefully placed on top of hydrogel 4, followed by irradiation of blue light for 1 hour. The viability of bacteria after being exposed to blue light was calculated via the viable count method as illustrated in FIG. 15.
Hydrogel 4, by itself, might exert activity against E. coli. Therefore, the antibacterial activity of hydrogel 4 in the absence of blue light was also determined in a control experiment. […]

[1] = NO release from hydrogel 4 quantified with Griess reagent; type: physicochemical
Description: NO release from hydrogel 4 was quantified using the Griess reagent, which is an indirect method that measures collected nitrite as the primary degradation product of NO. Nitrobenzene-appended anthranilamide-based hydrogel 4 was pre-formed in an aluminium covered vial at 1% w/v (1 mL). Milli-Q water (1 mL) was carefully cast on top of the hydrogel, which was subsequently exposed to UV or blue light irradiation. At certain time points (0, 5, 15, 30, 60, and 120 min), the entire upper solutions were carefully removed and allowed to react with Griess reagent, according to the indication of the NO assay kit (Promega), to provide an azo compound that is responsible for providing the colorimetric assay. Subsequently, 1 mL of fresh Milli-Q water was immediately added to the top of hydrogel 4 for continuing the release.
Due to the strong absorbance of hydrogel 4 in the UV range, NO release was triggered by using a UV lamp (λ=356 nm). The same volume of Milli-Q water was placed on top of hydrogel 4, which was irradiated with UV light for 2 hours. The entire solution, on top of the hydrogel, was removed and replaced with the same amount of Milli-Q water periodically. The resulting solutions were reacted with Griess reagent. Any NO generated during the experiment would react with oxygen to generate nitrite ion (NO2^−). The subsequent reaction between NO2^− with Griess reagent, which contains sulfanilamide and N-(1-naphthyl)ethylenediamine (NED), will form a bright pink azo-dye compound that can be quantified using UV-Vis spectroscopy, as shown in the below scheme: […]

[2] = Hydrogel formation, vial inversion test (critical gel concentration); type: physicochemical; set-up: key: OG: opaque gel; P: precipitate; conditions: solvent switch
Excerpt: The simplest method to determine whether a suitable hydrogel has formed is to use the vial inversion test. Through visual inspection, a material can be categorised as a solution, viscous solution, partial gel, or solid-like gel. A stable hydrogel needs to be able to hold its weight and/or maintain its shape during this assessment.
The critical gel concentration (CGC) is defined as the minimum mass of a short peptide required to provide a self-supporting hydrogel per unit volume in the vial inversion test (measured as % w/v).
Pre-weighed samples of short peptide 4 were prepared in aluminium-covered glass vials and Milli-Q water and 2 equivalents of NaOH (1.0 M) were added to make up concentrations of 1% w/v. The resulting suspensions were vortexed for 5 minutes to provide clear yellow solutions with pH 11.
To create a high ionic strength environment, 1 equivalent of NaCl was added and the vial was left to stand without disturbance for 3 hours at room temperature. Meanwhile, as an attempt to form a hydrogel by lowering the pH, 2 equivalents of GdL were added to a high pH solution of 4 followed by gentle mixing. These vials were inverted and allowed to stand overnight to confirm the hydrogel formation.
The formation of hydrogel 4 via the solvent switch method was conducted by dissolving short peptide 4, in an aluminium covered glass vial, with either 50% methanol, ethanol, or dimethyl sulfoxide (DMSO). Respective amounts of Mili-Q water were added to make up concentrations of 1% w/v.
In addition, gelation time was defined as the time (hours) required for 1% w/v of short peptide 4 to form a hydrogel which can be turned upside down without collapsing.
Pre-weighed samples of short peptides 10a-17a, 18, and 19 were prepared in glass vials with 10 mm internal diameter, and Milli-Q water was added to make up concentrations of 1% w/v. The resulting suspensions of short peptides 13, 18, and 19 (as ammonium or guanidinium salts) were slowly warmed until all solid had completely dissolved. GdL (1.5 to 2.0 equivalents) was added to the suspension of short peptides 10a-17a, before heat was applied. To create a high ionic strength environment, 1-5 equivalents of NaCl was added to the viscous solution of 10a-17a to make the total volume up to 1 mL, followed by gentle mixing, and the vial was left to stand without disturbance for 3 hours at room temperature. Subsequently, these vials were inverted and allowed to stand overnight to confirm hydrogel formation.

With `O=C(Nc1ccccc1C(=O)N[C@@H](Cc1ccccc1)C(=O)N[C@@H](Cc1ccccc1)C(=O)O)c1ccc([N+](=O)[O-])c(C(F)(F)F)c1` [Compound 4, (2-(4-Nitro-3-(trifluoromethyl)benzamido)benzoyl)-L-phenylalanyl-L-phenylalanine] the Log reduction (E. coli K12; hydrogel 4 1% w/v, blue light irradiation 1 hour) was ~3 Log, the “bacterial number after treatment” value (E. coli K12; hydrogel 4 1% w/v, blue light irradiation 1 hour, from 3×10^4 CFUs) was 34 CFUs and the “bacterial reduction without light” value (E. coli K12; hydrogel 4 without light irradiation) was “no bacterial reduction was observed”. The NO detected ([1]; hydrogel 1% w/v, UV light (λ=356 nm), 5 minutes) was 1 µM, the NO generated ([1]; hydrogel 1% w/v, UV light (λ=356 nm), 30 minutes) was 7 µM and the NO recovered ([1]; hydrogel 1% w/v, UV light, 2 hours) was 61%. For the same compound, the “irradiation time required to generate NO concentration that can kill E. coli” value ([1]; hydrogel 1% w/v, blue light) was 1 h, the “total NO recovered” value ([1]; hydrogel 1% w/v, blue light, 2 hours) was 23% and the “NO release in the absence of triggers” value ([1]; no UV or blue light) was “does not leach NO”. The “Remarks (gel state)” value ([2]; DMSO 5 % v/v) was “P”, the “Remarks (gel state)” value ([2]; DMSO 50 % v/v) was “OG” and the “Remarks (gel state)” value ([2]; EtOH 5 % v/v) was “P”. For the same compound, the “Remarks (gel state)” value ([2]; EtOH 50 % v/v) was “OG”, the “Remarks (gel state)” value ([2]; MeOH 5 % v/v) was “P” and the “Remarks (gel state)” value ([2]; MeOH 50 % v/v) was “OG”.

Reference: patent US20230123497A1, “NOVEL ANTIBACTERIAL HYDROGELS” (NewSouth Innovations Pty Limited, priority 2020, published 2023)
